Each structure is given as a SMILES string.

The subject of the experiment is W134X-CF#14 FRT. The experiment in a line: Read-through of a premature termination codon, W134X-CF#14 FRT data, with G418. The experiment is classed as cell-based. The conditions noted are these: in presence of G418. As for the experimental part: The compounds shown in Table 1 were evaluated for their ability to stimulate read-through of a premature termination codon, and their respective activities are shown in Tables 2 and 3 below.

In the case of `CCn1c(=O)c(C(=O)CN2CCCCC2C(N)=O)c(N)n(Cc2ccc(F)cc2C)c1=O` (centres unmarked) [1.161], the EC50 is 13.9 µM.

For `CCn1c(=O)c(C(=O)CN(CC(N)=O)C(C)C)c(N)n(Cc2ccc(F)cc2C)c1=O` [1.153], the EC50 came to 64.8 µM.

For the compound `NC(=O)C1CCCCN1CC(=O)c1c(N)n(C2CC2)c(=O)n(Cc2ccccc2)c1=O` (centres unmarked) [1.46], the EC50 was no less than 100 µM.

In the case of `CCn1c(=O)c(C(=O)CN2CCCC[C@@H]2C(N)=O)c(N)n(Cc2ccc(C(F)(F)F)cc2)c1=O` [1.178], the EC50 was determined as 21.2 µM.

With `COc1cccc(Cn2c(N)c(C(=O)CN3CCCCC3C(N)=O)c(=O)n(Cc3cccc(OC)c3)c2=O)c1` (centres unmarked) [1.116], the EC50 was 23.9 µM.

As to `Cc1cccc(Cn2c(N)c(C(=O)CN3CCCCC3C(N)=O)c(=O)n(Cc3cccc(C)c3)c2=O)c1` (centres unmarked) [1.109], the EC50 was determined as 7.47 µM.

Consider `NC(=O)C1CCCCN1CC(=O)c1c(N)n(Cc2cccc(F)c2)c(=O)n(Cc2cccc(F)c2)c1=O` (centres unmarked) [1.95], for which the EC50 amounted to 21.1 µM.

For the compound `CCn1c(=O)c(C(=O)CN2CCCCC2C(N)=O)c(N)n(Cc2cccc(F)c2)c1=O` (centres unmarked) [1.134], the EC50 came to 17.4 µM.

Consider `CCn1c(=O)c(C(=O)CN2CCCCC2C2CCC2)c(N)n(Cc2ccc(F)cc2)c1=O` (centres unmarked) [1.210], for which the EC50 was 6.68 µM.

On to `CCn1c(=O)c(C(=O)CN2CCCC[C@@H]2C(=O)NCC(C)C)c(N)n(Cc2ccccc2)c1=O` [1.156], for which the concentration giving a half-maximal response (EC50) was determined as 11.4 µM.

On to `CCOc1ccc(C(C)NCC(=O)c2c(N)n(Cc3ccc(F)cc3)c(=O)n(CC)c2=O)cc1OCC` (centres unmarked) [1.179], for which the EC50 was 10.1 µM.

Turning to `CCn1c(=O)c(C(=O)CN(CCC(N)=O)C(C)C)c(N)n(Cc2ccc(F)cc2)c1=O` [1.204], the 50% effective concentration (EC50) was 12.5 µM.

Regarding `CCn1c(=O)c(C(=O)CN2CCCC2C(=O)N2CCOCC2)c(N)n(Cc2ccccc2)c1=O` (centres unmarked) [1.121], the EC50 amounted to 61.3 µM.

For `CCn1c(=O)c(C(=O)CN2CCCCC2C(N)=O)c(N)n(Cc2ccc(F)c(C)c2)c1=O` (centres unmarked) [1.163], the concentration for a half-maximal effect (EC50) amounted to 8.05 µM.

Consider `CCn1c(=O)c(C(=O)CN2CCCCC2C(=O)N(C(C)C)C(C)C)c(N)n(Cc2ccccc2)c1=O` (centres unmarked) [1.88], for which the EC50 was determined as 53.8 µM.

Consider `NC(=O)C1CCCCN1CC(=O)c1c(N)n(Cc2ccccc2F)c(=O)n(Cc2ccccc2F)c1=O` (centres unmarked) [1.92], for which the concentration for a half-maximal effect (EC50) stood at 24.2 µM.

Turning to `CC(C)N(CC(N)=O)CC(=O)c1c(N)n(Cc2cccs2)c(=O)n(Cc2cccs2)c1=O` [1.100], the EC50 was determined as 16.5 µM.

As for `CCn1c(=O)c(C(=O)CN(CCNC(=O)OC(C)(C)C)C(C)C)c(N)n(Cc2ccccc2)c1=O` [1.26], the EC50 was determined as 155 µM.

For `CCn1c(=O)c(C(=O)CN2CCCCC2C(N)=O)c(N)n(Cc2ccccc2F)c1=O` (centres unmarked) [1.137], the EC50 turned out to be 5.08 µM.

Regarding `COc1ccc(Cn2c(N)c(C(=O)CN3CCCCC3C(N)=O)c(=O)n(Cc3ccc(OC)cc3)c2=O)cc1` (centres unmarked) [1.115], the EC50 amounted to 31.9 µM.

Take `CC[C@H]1CCCCN1CC(=O)c1c(N)n(Cc2ccc(F)cc2)c(=O)n(CC)c1=O` [1.199]: the EC50 was 9.5 µM.

`CCn1c(=O)c(C(=O)CN2CCCCC2C(=O)Nc2ccccc2)c(N)n(Cc2ccccc2)c1=O` (centres unmarked) [1.97]: the EC50 came out at 62.5 µM.

As for `CCn1c(=O)c(C(=O)CN2CCCC[C@@H]2C(=O)NCC(C)(C)C)c(N)n(Cc2ccccc2)c1=O` [1.157], the half-maximal effective concentration (EC50) was found to be 19.5 µM.

Consider `CCn1c(=O)c(C(=O)CN2CCCC[C@@H]2C(=O)NCc2ccccc2F)c(N)n(Cc2ccccc2)c1=O` [1.142], for which the concentration giving a half-maximal response (EC50) was 13.1 µM.

In the case of `CC(C)Cn1c(=O)c(C(=O)CN2CCCCC2C(N)=O)c(N)n(Cc2ccccc2)c1=O` (centres unmarked) [1.75], the EC50 worked out at 28 µM.

Take `CCn1c(=O)c(C(=O)CN(CC(N)=O)C(C)C)c(N)n(Cc2ccc(F)c(OC)c2)c1=O` [1.170]: the EC50 was no less than 100 µM.

On to `CCn1c(=O)c(C(=O)CN2CCCC[C@@H]2C(=O)NCc2ccc(F)cc2)c(N)n(Cc2ccc(F)cc2)c1=O` [1.189], for which the concentration for a half-maximal effect (EC50) came to 2.56 µM.

For `CCn1c(=O)c(C(=O)CN2CCCCC2C(=O)OC)c(N)n(Cc2ccccc2)c1=O` (centres unmarked) [1.68], the EC50 was determined as 19.7 µM.

For `CCn1c(=O)c(C(=O)CN2CCCCC2C)c(N)n(Cc2ccc(F)cc2)c1=O` (centres unmarked) [1.200], the EC50 was 34.9 µM.

One may read the EC50 as the concentration that produces a half-maximal response.
